According to patent US20080085264A1, “METHODS FOR ENHANCING STEM CELL ENGRAFTMENT DURING TRANSPLANTATION” (priority 2003, published 2008):

Assays:
C57BL/6 mice [1] = assay: G-CSF induced mobilization of HSC/HPC in C57BL/6 mice (progenitor cell assays of peripheral blood); type: in vivo, mouse; conditions: for effect of scrambled peptides on mobilization: C57BL/6, data not shown
Protocol: (§1) Mobilization was achieved by treating mice with 2.5 μg (micrograms) G-CSF/mouse 2×/day s.c. for 2 days (Broxmeyer H E, et al. J Exp Med. 1999; 189:1987-1992). Mice simultaneously treated with a specific CD26 inhibitor also underwent treatment with either 5 μmol Diprotin A/mouse 2×/day s.c. for 2 days or 5 μmol Val-Pyr/mouse 2×/day s.c. for 2 days. Diprotin A was obtained commercially (Peptides International, Louisville, Ky.) and Val-Pyr was obtained as a gift from Nicolai Wagtmann (Novo Nordisk, Denmark). After either G-CSF or G-CSF plus CD26 inhibitor treatment peripheral blood cells were collected and total cellular nuclearity was measured and progenitor cell assays were performed using total peripheral blood cells.
(§2) One-hundred thousand mouse G-CSF mobilized peripheral blood cells were plated in triplicate for colony formation by CFU-GM, BFU-E, and CFU-GEMM and scored at 7 days incubation as previously described (Cooper S, Broxmeyer H E. Measurement of interleukin-3 and other hematopoietic growth factors, such as GM-CSF, G-CSF, M-CSF, erkythropoietin and the potent co-stimulating cytokines steel factor and FLt-3 ligand. In: Coligan J E K A, Margulies D H, Shevach E M, Strober E, Coico R, ed. Current protocols in immunology. New York: John Wiley & Sons; 1996:6.4.1-6.4.12). Cells were plated for colony formation in 1% methylcellulose culture medium containing 30% FBS, 1 U/ml recombinant(r) human Epo, 0.1 mM Hemin, 5% Pokeweed Mitogen Spleen Conditioned Media (PWMSCM), and 50 ng/ml rmouse Steel Factor (=Stem Cell Factor, SCF).

DBA/2 mice [2] = assay: G-CSF induced mobilization of HSC/HPC in DBA/2 mice (progenitor cell assays of peripheral blood); type: in vivo, mouse
Protocol: as §1, §2

BoyJ recipient mice [3] = assay: Short-term homing of donor Sca-1+lin- cells to recipient bone marrow; type: in vivo, mouse
Protocol: Control C57BL/6 (CD45.2^+), CD26 inhibitor treated C57BL/6 (CD45.2^+), or CD26^−/− (CD45.2^+) sorted Sca-1^+lin^− or LD donor BM cells were transplanted by tail-vein injection into lethally irradiated (1100 cGy split dose) congenic BoyJ (CD45.1^+) female recipient mice (Haneline L S, et al. Blood. 1999; 94:1-8.) Contribution of Sca^+lin^− donor cells in the context of Sca-1^+lin^− recipient cells was calculated by flow cytometric analysis of cells found in the recipient mouse BM by measuring CD45.1+ and CD45.2^+ on Sca-1^+lin^− LD cells isolated from the recipient mice 24 hours post transplant. […] Comparisons between treatment groups were made using a two-tailed Student's t-test and data was plotted as mean (M)±standard error of the mean (SEM).

BoyJ recipient mice [4] = assay: Non-competitive long-term engraftment; type: in vivo, mouse; conditions: six months post transplant, P<0.05, n=5
Protocol: Control C57BL/6 (CD45.2^+) or CD26 inhibitor treated C57BL/6 (CD45.2^+) LD donor BM cells were transplanted by tail-vein injection into lethally irradiated (1100 cGy split dose) congenic BoyJ (CD45.1^+) female recipient mice (Haneline L S, et al. Blood. 1999; 94:1-8). Contribution of donor cells was obtained by measuring the number of donor and residual recipient lymphocytes in the peripheral blood. The % donor contribution was calculated by flow cytometric analysis of peripheral blood lymphocytes found in the recipient mouse peripheral blood by measuring CD45.1^+ and CD45.2^+ on cells isolated from the recipient mice 1-6 months post transplant. No less than five mice from each recipient group were analyzed, each one having received a transplant of 5×10^5 pooled LD donor BM cells. Comparisons between treatment groups were made using a two-tailed Student's t-test and data was plotted as mean (M)±standard error of the mean (SEM).

BoyJ irradiated mice = assay: Competitive repopulation assay; type: in vivo, mouse; conditions: six months post transplant, 5×10^5 or 2.5×10^5 donor cells vs 5×10^5 competitor BoyJ cells
From the text: Donor LDBM cells (5×10^5) from representative mice from each test group were transplanted into lethally irradiated BoyJ mice (expressing CD45.1) Quantitative contribution to chimerism was obtained 2-6 months post-transplantation in the same manner described for long-term engraftment assays.
Eight week old female recipient mice were lethally irradiated (1100 cGy split dose) prior to transplantation as previously described (Haneline L S, et al. Blood. 1999; 94:1-8). Limiting dilutions of donor LD BM cells (5×10^5, 2.5×10^5, 1.25×10^5, and 0.625×10^5 cells) from control C57Bl/6 mice, CD26-inhibitor treated LD BM cells, or untreated LD BM cells from CD26^−/− mice (all expressing CD45.2) are co-transplanted with a constant number (5×10^5) of pooled competitive BM cells from congenic BoyJ mice (expressing CD45.1), into BoyJ irradiated mice. To determine quantitatively the relative cell contribution to chimerism of each test cell population tail-vein blood samples were obtained post-transplantation each month for three months and CD45.1 and CD45.2 was measured by flow-cytometry. Cells were divided into CD26 inhibitor (either Diprotin A or Val-Pyr) treated or untreated groups obtained from normal C57BL/6 mice and untreated cells obtained from CD26^−/− mice. […]

C57BL/6 mice [5] = assay: G-CSF induced mobilization of HSC/HPC in C57BL/6 mice (progenitor cell assays of peripheral blood); type: in vivo; conditions: 5 μmol/mouse 2×/day s.c. alone, without G-CSF
DBA/2 mice [6] = assay: G-CSF induced mobilization of HSC/HPC in DBA/2 mice (progenitor cell assays of peripheral blood); type: in vivo, mouse; conditions: without G-CSF
CD26-/- mice = assay: G-CSF induced mobilization of progenitors in CD26-/- mice; type: in vivo, mouse; conditions: CD26-/- mice on C57Bl/6 background
Protocol: as §1
as §2, with “Cells were plated for colony formation in 1% methylcellulose culture medium containing 30% FBS, 1 U/ml recombinant(r) human Epo, 0.1 mM Hemin, 5% Pokeweed Mitogen Spleen Conditioned Media (PWMSCM), and 50 ng/ml rmouse Steel Factor (=Stem Cell Factor, SCF).” left out

[7] = inhibitor 5 μmol/mouse 2×/day s.c. during G-CSF mobilization, C57BL/6
[8] = inhibitor treatment during G-CSF mobilization
[9] = 2.5 μg G-CSF/mouse 2×/day s.c., C57BL/6

Molecule: CC(C)[C@H](N)C(=O)N1CCCC1 [Val-Pyr, Valine-Pyrrolidide]
- reduction in BFU-E compared to G-CSF alone (C57BL/6 mice [1]; [7]): 22%
- reduction in CFU-GEMM compared to G-CSF alone (C57BL/6 mice [1]; [7]): 62%
- reduction in CFU-GM compared to G-CSF alone (C57BL/6 mice [1]; [7]): 55%
- reduction in BFU-E compared to G-CSF alone (DBA/2 mice [2]; [8]): 49%
- reduction in CFU-GEMM compared to G-CSF alone (DBA/2 mice [2]; [8]): 56%
- reduction in CFU-GM compared to G-CSF alone (DBA/2 mice [2]; [8]): 52%
- short-term homing of donor cells (BoyJ recipient mice [3]; donor LDBM unit treated prior to transplant, P<0.01, n=6): significant increase in short-term homing
- donor cell contribution to the formation of peripheral blood leukocytes (BoyJ recipient mice [4]): Increased donor cell contribution
- donor contribution to chimerism (BoyJ irradiated mice): increased donor contribution to chimerism
- effect on the mobilization of progenitors, inhibitor alone (C57BL/6 mice [5]): little or no effect
- effect on the mobilization of progenitors, inhibitor alone (DBA/2 mice [6]): little or no effect

Molecule: Pro-Ile-Ile
- effect of scrambled peptides on mobilization (C57BL/6 mice [1]): no effect

Molecule: c1cc(CN2CCCNCCNCCCNCC2)ccc1CN1CCCNCCNCCCNCC1 [AMD3100]
- effect on the increase in homing efficiency generated by inhibition or loss of CD26 (BoyJ recipient mice [3]; 10×10^6 LDBM donor cells treated with AMD3100 for 15 minutes prior to transplantation): reversed the increase in homing efficiency
- homing efficiency compared to control LDBM cells (BoyJ recipient mice [3]; AMD3100 treatment alone, no CD26 inhibitor): reduction in homing efficiency

Molecule: Ile-Ile-Pro
- effect of scrambled peptides on mobilization (C57BL/6 mice [1]): no effect

B1: G-CSF: cytokine used to induce mobilization of HSC/HPC (protein, UniProt P09919 31-207, looked up)
Granulocyte …: TPLGPASSLPQSFLLKCLEQVRKIQGDGAALQEKLVSECATYKLCHPEELVLLGHSLGIPWAPLSSCPSQALQLAGCLSQLHSGLFLYQGLLQALEGISPELGPTLDTLQLDVADFATTIWQQMEELGMAPALQPTQGAMPAFASAFQRRAGGVLVASHLQSFLEVSYRVLRHLAQP
- BFU-E mobilized to peripheral blood (C57BL/6 mice [1]; [9]): 1027±107 BFU-E/ml
- CFU-GEMM mobilized to peripheral blood (C57BL/6 mice [1]; [9]): 442±35 CFU-GEMM/ml
- CFU-GM mobilized to peripheral blood (C57BL/6 mice [1]; [9]): 2348±249 CFU-GM/ml
- BFU-E mobilized to peripheral blood (DBA/2 mice [2]; 2.5 μg G-CSF/mouse 2×/day s.c.): 2219±141 BFU-E/ml
- CFU-GEMM mobilized to peripheral blood (DBA/2 mice [2]; 2.5 μg G-CSF/mouse 2×/day s.c.): 1186±163 CFU-GEMM/ml
- CFU-GM mobilized to peripheral blood (DBA/2 mice [2]; 2.5 μg G-CSF/mouse 2×/day s.c.): 8145±1038 CFU-GM/ml
- mobilization of progenitor cells by G-CSF (CD26-/- mice): low, but significant, mobilization
